Experimental data taken from ChEMBL document CHEMBL1201862, “PubChem BioAssay data set” (2004).
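These data come from cells grown in 96-well plates and exposed to compound for 48 hours at five concentrations. GI50 is the concentration that inhibits growth by half.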 The source made the active and inactive calls. Cut-off read from the data, not from the text of the source: active = GI50 up to about 1.1 µM and inactive = higher.

Assays:
Assay in all cases: NCI tumour cell line growth inhibition, 48 h
786-0 = test system: 786-0
COLO 205 = test system: COLO 205
DU-145 = test system: DU-145
HOP-62 = test system: HOP-62
IGROV-1 = test system: IGROV-1
Malme-3M = test system: Malme-3M
NCI-H226 = test system: NCI-H226
NCI-H23 = test system: NCI-H23
OVCAR-3 = test system: OVCAR-3
OVCAR-4 = test system: OVCAR-4
RPMI-8226 = test system: RPMI-8226
RXF 393 = test system: RXF 393
SF-295 = test system: SF-295
SF-539 = test system: SF-539
SK-MEL-5 = test system: SK-MEL-5
SN12C = test system: SN12C
SNB-75 = test system: SNB-75
SR = test system: SR
A498 = test system: A498

Structure (SMILES)	GI50 (786-0)	GI50 (COLO 205)	GI50 (DU-145)	GI50 (HOP-62)	GI50 (IGROV-1)	GI50 (Malme-3M)	GI50 (NCI-H226)	GI50 (NCI-H23)	GI50 (OVCAR-3)	GI50 (OVCAR-4)	GI50 (RPMI-8226)	GI50 (RXF 393)	GI50 (SF-295)	GI50 (SF-539)	GI50 (SK-MEL-5)	GI50 (SN12C)	GI50 (SNB-75)	GI50 (SR)	GI50 (A498)
Cc1cc2ncn(C3CCCO3)c2cc1C (stereo not given)	> 100 µM (inactive)	> 100 µM (inactive)	> 100 µM (inactive)	> 100 µM (inactive)	> 100 µM (inactive)	> 100 µM (inactive)	> 100 µM (inactive)	> 100 µM (inactive)	> 100 µM (inactive)	> 100 µM (inactive)	> 100 µM (inactive)	> 100 µM (inactive)	> 100 µM (inactive)	> 100 µM (inactive)	> 100 µM (inactive)	> 100 µM (inactive)	71.6 µM (inactive)	> 100 µM (inactive)	
O=c1c2cn[nH]c2nc2scc(-c3ccc(Cl)cc3)n12	> 100 µM (inactive)	> 100 µM (inactive)		> 100 µM (inactive)	> 100 µM (inactive)	> 100 µM (inactive)	> 100 µM (inactive)	> 100 µM (inactive)	> 100 µM (inactive)	> 100 µM (inactive)	> 100 µM (inactive)	> 100 µM (inactive)	> 100 µM (inactive)	> 100 µM (inactive)	> 100 µM (inactive)	> 100 µM (inactive)	16.9 µM (inactive)	> 100 µM (inactive)	
COc1ccc(Cc2nc3cc(C(F)(F)F)ccc3n2CCCN(C)C)cc1		18 µM (inactive)	19.2 µM (inactive)	26 µM (inactive)	28 µM (inactive)	13.7 µM (inactive)	36.1 µM (inactive)	15.7 µM (inactive)	17.3 µM (inactive)	27.2 µM (inactive)		14.7 µM (inactive)	19.7 µM (inactive)		16.2 µM (inactive)				17.3 µM (inactive)
Cc1cccc(Nc2nc3ccccc3nc2NS(=O)(=O)c2ccc(N)cc2)c1	30 µM (inactive)	21.1 µM (inactive)	37.2 µM (inactive)	25.7 µM (inactive)	33 µM (inactive)	78.7 µM (inactive)	60.4 µM (inactive)	5.61 µM (inactive)	38.5 µM (inactive)	10 µM (inactive)	23.4 µM (inactive)	18.5 µM (inactive)	34.8 µM (inactive)	19.1 µM (inactive)	35.5 µM (inactive)	36.6 µM (inactive)	52.8 µM (inactive)	19.8 µM (inactive)	
COC(=O)Nc1nc(=O)c2cc(OC)c(OC)cc2[nH]1	45.5 µM (inactive)	4.4 µM (inactive)	32.7 µM (inactive)	44.6 µM (inactive)	15.2 µM (inactive)	5.31 µM (inactive)	37.6 µM (inactive)	50 µM (inactive)	> 100 µM (inactive)	> 100 µM (inactive)			4.66 µM (inactive)	24.2 µM (inactive)	6.35 µM (inactive)	64.9 µM (inactive)	11.6 µM (inactive)	> 100 µM (inactive)	71.9 µM (inactive)
CC(C)(C)C(=O)OCC1CCC(n2cnc3c(=O)[nH]c(N)nc32)O1 (stereo not given)	> 100 µM (inactive)	> 100 µM (inactive)		> 100 µM (inactive)	> 100 µM (inactive)	> 100 µM (inactive)	> 100 µM (inactive)	> 100 µM (inactive)	> 100 µM (inactive)	> 100 µM (inactive)	> 100 µM (inactive)		> 100 µM (inactive)	> 100 µM (inactive)	> 100 µM (inactive)	> 100 µM (inactive)	40 µM (inactive)		> 100 µM (inactive)
O=C(NCCCl)Nc1cccnc1	16.9 µM (inactive)	24.7 µM (inactive)	15.4 µM (inactive)	34.4 µM (inactive)	13.6 µM (inactive)	2.62 µM (inactive)	15.7 µM (inactive)	17.5 µM (inactive)	26.5 µM (inactive)	43.1 µM (inactive)	2.84 µM (inactive)	0.951 µM (active)	30 µM (inactive)	31.3 µM (inactive)	5.19 µM (inactive)	21.5 µM (inactive)	29.6 µM (inactive)		24.7 µM (inactive)
Cc1cc(Nc2ccc(S(=O)(=O)O)c3cc(S(=O)(=O)O)cc(S(=O)(=O)O)c23)c2ccccc2n1	> 100 µM (inactive)	> 100 µM (inactive)	> 100 µM (inactive)	> 100 µM (inactive)	> 100 µM (inactive)	> 100 µM (inactive)	> 100 µM (inactive)	> 100 µM (inactive)	> 100 µM (inactive)	> 100 µM (inactive)	> 100 µM (inactive)	> 100 µM (inactive)	> 100 µM (inactive)	> 100 µM (inactive)	> 100 µM (inactive)	> 100 µM (inactive)	> 100 µM (inactive)		> 100 µM (inactive)
